Measured values taken from patent publication US10118915B2, “Kappa opioid ligands” (The Scripps Research Institute, priority 2012, dated 2018).

Each compound was assayed against kappa opioid receptor (OPRK1) (Homo sapiens (Human), UniProt P41145) (assay: OPRK1 antagonist assay (b-arrestin-2-TEV protease / b-lactamase reporter cell line, EC80 challenge of U-50488)). Settings: not given.
Assay type: cell-based

kappa opioid receptor (OPRK1), sequence (P41145 whole entry): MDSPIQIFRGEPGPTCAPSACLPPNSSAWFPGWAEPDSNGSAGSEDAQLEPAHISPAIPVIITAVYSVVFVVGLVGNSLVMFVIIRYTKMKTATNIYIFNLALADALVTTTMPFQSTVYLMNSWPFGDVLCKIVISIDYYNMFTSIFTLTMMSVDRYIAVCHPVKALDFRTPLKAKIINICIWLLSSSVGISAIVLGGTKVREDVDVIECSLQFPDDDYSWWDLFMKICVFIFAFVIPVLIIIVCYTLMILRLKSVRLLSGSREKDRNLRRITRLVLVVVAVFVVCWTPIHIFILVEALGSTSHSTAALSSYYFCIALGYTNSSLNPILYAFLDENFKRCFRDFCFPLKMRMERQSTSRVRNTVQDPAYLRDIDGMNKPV

Row | Compound | IC50
1 | COC(=O)c1cc(Br)cnc1NC1CCC(NC2CCCCC2)CC1 (centres unmarked) [C20] | > 10 µM
2 | CC(C)c1noc(-c2cc(Br)cnc2N2CCC(NC3CCCCC3)CC2)n1 [C42] | > 10 µM
3 | Cc1ccc2nc(N3C[C@@H]4[C@H](C3)[C@H]4NC3CCOCC3)c(-c3nc(C)no3)cc2c1 [C88] | > 10 µM

Same assay, conditions: antagonist mode vs EC80 U-50488; read-out: IC50

Row | IC50 | Compound
4 | > 10 µM | Cc1cc(C#N)nc(N2CCC(N[C@@H]3CCCC[C@H]3O)CC2)c1C#N [C11]
5 | 7.16 µM | COC1CN(c2nc3ccccc3cc2C2=NCC(C)O2)CCC1NC1CCCCC1O (centres unmarked) [compound 258]
6 | 0.113 µM | CCc1noc(-c2cc3cc(C)ccc3nc2N2CC[C@@H](NC3CCCCC3)[C@H](OC)C2)n1 [compound 335]
7 | 1.07 µM | Cc1nc(-c2cc3ccc(F)cc3nc2N2CCC(NC3CCOCC3)CC2)no1 [compound 486]
8 | 0.616 µM | Cc1nc(-c2cc3cc(F)ccc3nc2N2CCC(NC3CCCCCC3)CC2)no1 [compound 489]
